Square brackets hold non-standard residues; d marks the D form. Peptide text beside a SMILES is read from it.
Assay: Time-course stability in 25% human serum by LC-MS
Format: in vitro ADME
Conditions: 25% human serum in RPMI media (165 mM MOPS, pH 7.0), 50 μg/ml peptide, 37°C water bath, precipitation with 1% formic acid in ethanol, LC-MS/MS (MRM), internal standard AMP 1018, mean ± SD, n = 3
Experimental: After parameters were optimized to reduce peptide loss during sample processing, the extent of AMP degradation by proteases in human serum was determined via a time-course experiment. Kn2-7 or dKn2-7 (50 μg/ml final concentration) was mixed with RPMI media alone or RPMI containing 25% human serum and incubated at 37°C in a water bath for up to 24 h. At predetermined time points (t = 0, 0.5, 1, 2, 3, 4 and 24 h), a 200 μl aliquot of each sample was collected and mixed with 400 μl of 1% formic acid in ethanol. Samples were incubated on ice for 15 min and centrifuged at 18,000 g for 10 min. Supernatants were transferred to fresh 500 μl tubes and stored at -20°C.
Samples were diluted eight-times with 3% ACN and 0.1% formic acid in water and spiked with internal standard AMP 1018 [15, 16] at 1 μg/ml immediately before LC–MS analysis. A 10 μl aliquot of each sample was analyzed using an Agilent ZORBAX Eclipse XDB 80Å C18 column (2.1 × 50 mm, 5 μm, Agilent, CA, USA) and a Shimadzu LC-20AD system (Shimadzu Corporation, Kyoto, Japan) coupled with a SCIEX API 4000 triple quadrupole mass spectrometer (AB Sciex, MA, USA). […]
MS was conducted in multiple reaction monitoring and positive electrospray ionization mode. […] AMPs Kn2-7/dKn2-7 and 1018 were quantified with the most abundant multiple reaction monitoring transitions m/z 558.7/120.2 and 385.18/239.1, respectively. […]

CC[C@H](C)[C@H](NC(=O)[C@H](CCCNC(=N)N)NC(=O)[C@H](CCCCN)NC(=O)[C@@H](NC(=O)[C@@H](N)Cc1ccccc1)[C@@H](C)CC)C(=O)N[C@@H](C)C(=O)N[C@@H](CCCNC(=N)N)C(=O)N[C@@H](CC(C)C)C(=O)N[C@@H](CC(C)C)C(=O)N[C@@H](CCCNC(=N)N)C(=O)N[C@@H](CCCCN)C(=O)N[C@H](C(=O)N[C@@H](Cc1ccccc1)C(=O)O)[C@@H](C)CC [Kn2-7] (H-FIKRIARLLRKIF-OH)
peptide remaining at 24 h relative to the starting concentration (amount in 0 h sample): 1.0% ± 0.4%

CC[C@@H](C)[C@@H](NC(=O)[C@H](N)Cc1ccccc1)C(=O)N[C@H](CCCCN)C(=O)N[C@H](CCCNC(=N)N)C(=O)N[C@@H](C(=O)N[C@H](C)C(=O)N[C@H](CCCNC(=N)N)C(=O)N[C@H](CC(C)C)C(=O)N[C@H](CC(C)C)C(=O)N[C@H](CCCNC(=N)N)C(=O)N[C@H](CCCCN)C(=O)N[C@@H](C(=O)N[C@H](Cc1ccccc1)C(=O)O)[C@H](C)CC)[C@H](C)CC [dKn2-7] (H-[dF][dI][dK][dR][dI][dA][dR][dL][dL][dR][dK][dI][dF]-OH)
peptide remaining at 24 h relative to the starting concentration (amount in 0 h sample): 78.5% ± 2.7%

From PMC9327644, “Optimized peptide extraction method for analysis of antimicrobial peptide Kn2-7/dKn2-7 stability in human serum by LC–MS” (Future Science OA, 2022)
